Data published in patent US20060217445A1, “Natural astaxanthin extract reduces dna oxidation” (priority 2003, published 2006).
“Also recorded” adds a separate entry of the source.

Experiments:
[1] = test system: ICAM-1 (CD54), LFA-1 (CD11a) and LFA-3 (CD58); experiment: Cell surface adhesion molecules by flow cytometry; type: in vivo, human; conditions: for frequency of cells expressing LFA-1 marker: week 8 (control 31.8%)
Protocol: (§1) Free-living healthy female Korean subjects (average age 21.5 years) were recruited at Inha University, Korea. A three-day dietary record was obtained prior to the study to provide background dietary information. Subjects had no history of diabetes, cancer or alcohol abuse, and were non-smokers. They were allowed to consume their normal diets but advised to restrain from eating astaxanthin-rich foods. Subjects were assigned to receive 0 (control), 2, or 8 mg astaxanthin (109 g astaxanthin/kg oleoresin concentrate from Haematococcus pluvialis, astaZanthin™, La Haye Laboratories Inc., Redmond, Wash.) (n=14 subjects/diet) for eight weeks in a double-blind placebo control study. The astaxanthin was administered in the form of one soft gel capsule taken every morning. Blood was again drawn on week 0, 4 and 8 to assess immune function and oxidative status.
(§2) Leukocyte subset. Subpopulations of CD3 (total T), CD4 (Th), CD8 (Tc), NK (natural killer), and CD21 (B cells) were quantitated by flow cytometry as previously described (Chew et al. 2000). In addition, the distribution of the cell surface adhesion molecules ICAM-1 (CD54), LFA-1 (CD11a) and LFA-3 (CD58), also was measured by flow cytometry. The population of total T cells was higher (P<0.05) in astaxanthin-fed (both levels) subjects than unsupplemented controls on wk 4 and 8 (FIG. 6). The population of B cells also was higher (P<0.05) in subjects given 2 mg astaxanthin after 8 weeks (FIG. 7).

[2] = test system: UVA-induced oxidative stress; conditions: in vitro; cited from earlier work
[3] = test system: cytotoxic T lymphocyte activity and IFN-γ production; conditions: astaxanthin-fed mice; cited from earlier work
[4] = Plasma astaxanthin by reverse phase HPLC in supplemented human subjects; type: in vivo; design: Astaxanthin Levels (plasma): unit not given here; conditions: for Astaxanthin Levels (plasma): oral
Protocol: as §1
HPLC. Astaxanthin content in plasma was analyzed by reverse phase HPLC (Alliance 2690 Waters HPLC system fitted with a photodiode array detector, Waters, Milford, Mass.) as previously described (Park et al., J Nutr. 128(10):1650-1656, 1998). Trans-β-apo-8′carotenal (Sigma Chem. Co., St. Louis, Mo.) was used as the internal standard.

[5] = cited from earlier work
human subjects = experiment: Delayed-type hypersensitivity (DTH) response to intracutaneous tuberculin; type: in vivo
Protocol: as §1
Delayed-type hypersensitivity. Delayed-type hypersensitivity (DTH) response to an intracutaneous injection of tuberculin (Mono-Vacc Test (O.T.), Pasteur Merieux Connaught, France) was assessed on week 8. The injection was administered by a physician and skin thickness and induration were measured at 0, 24, 48 and 72 hours after challenge. In general, DTH response was maximal at 48 to 72 h post-injection (FIG. 9). Subjects fed 2 mg astaxanthin had higher (P<0.08) DTH response than unsupplemented controls.

[6] = mice fed the same amount of these carotenoids; cited from earlier work
[7] = test system: peripheral blood mononuclear cell (PBMC); experiment: Mitogen-induced lymphoproliferation, whole blood cultures; type: in vivo, human; conditions: especially 8 mg; significant (P<0.05) on wk 8
Protocol: as §1
Lymphoproliferation. The proliferation response of peripheral blood mononuclear cell (PBMC) to PHA (2 and 10 mg/L final concentration), concanavalin A (Con A; 2 and 10 mg/L), and pokeweed mitogen (PWM; 1 and 5 mg/L) was assessed using whole blood cultures as described (Chew et al., J Nutr. 130(8):1910-1913, 2000). Whole blood was cultured in order to mimic in vivo conditions. Results were calculated as stimulation index (cpm of mitogen-stimulated culture/cpm of unstimulated cultures). Astaxanthin supplementation, especially those given 8 mg astaxanthin, increased lymphocyte proliferation when stimulated by the T cell-dependent mitogens PHA (FIG. 2) and Con A (FIG. 3), and also B cell mitogen (PWM, FIG. 4). The increases were significant (P<0.05) on wk 8 for all mitogens.

lipid peroxidation = conditions: cited from earlier work
splenocytes = conditions: mice; cited from earlier work
[8] = test system: 8-epi-prostaglandin F2α (8-isoprostane); experiment: Lipid peroxidation: plasma 8-isoprostane by ELISA; type: in vivo, human; conditions: 2 or 8 mg daily, 8 weeks
Protocol: as §1
Lipid-peroxidation. Plasma concentrations of 8-epi-prostaglandin F2α (8-isoprostane) was measured by ELISA.

[9] = test system: CD3 (total T), CD4 (Th), CD8 (Tc), NK, CD21 (B cells); experiment: Leukocyte subsets by flow cytometry; type: in vivo, human
Protocol: as §1, §2

K562 target cells = experiment: Natural killer cell cytotoxic activity (PBMC effector, MTT); type: in vivo, human; conditions: 8 mg daily, wk 8, effector:target ratio 10:1, P<0.05
Protocol: as §1
Natural killer cell cytotoxic activity. Effector (PBMC) and target (K562) cells were cultured at effector:target ratios of 5:1 and 10:1 in Dulbecco's Modified Eagles Medium (Sigma, St. Louis, Mo.) containing 100 mL/L fetal bovine serum, 100 U/mL penicillin, and […] streptomycin sulfate. Killing was assessed using MTT. Percent of specific cytotoxicity calculated as follows: % Specific cytotoxicity=1−(ODeffector+target−ODeffector)/ODtarget×100. […]

[10] = test system: 8-Hydroxy-2′-deoxyguanosine (8-OHdG); experiment: Oxidative damage to DNA: plasma 8-OHdG by ELISA; type: in vivo, human; design: Average Levels of 8-OHdG (plasma): unit not given here; conditions: for Average Levels of 8-OHdG (plasma): oral
Protocol: as §1
Oxidative damage to DNA. 8-Hydroxy-2′-deoxyguanosine (8-OHdG) was measured in plasma by ELISA (BIOXYTECH™ 8-OHhdG-EIA Kit, OxisResearch, Portland, Oreg.; sensitivity=0.5 μg/L).

rats = rats fed 400 ppm for 41 days; cited from earlier work
[11] = test system: splenocytes of tumor-bearing mice; conditions: dietary; cited from earlier work

## CC1=C(/C=C/C(C)=C/C=C/C(C)=C/C=C/C=C(C)/C=C/C=C(C)/C=C/C2=C(C)C(=O)C(O)CC2(C)C)C(C)(C)CC(O)C1=O (stereo not drawn) [astaxanthin, 3,3′-dihydroxy-beta,beta-carotene-4,4′-dione]
[1]; 2 mg daily, P<0.05
  expression of LFA-1 adhesion molecules: increased
[1]; 2 mg daily
  frequency of cells expressing LFA-1 marker: 42.1%
[1]; 8 mg daily
  frequency of cells expressing LFA-1 marker: 30.6%
[1]; 2 or 8 mg daily
  ICAM-1 or LFA-3 expression: No similar dietary effect
[2]
  protection against UVA-induced oxidative stress relative to lutein and β-carotene: approximately 100 fold
[3]
  cytotoxic T lymphocyte activity and IFN-γ production: increased
[4]; 2 mg astaxanthin daily, 4 week
  Astaxanthin Levels (plasma): 0.0960
[4]; 2 mg astaxanthin daily, 8 week
  Astaxanthin Levels (plasma): 0.0921
[4]; 8 mg astaxanthin daily, 4 week
  Astaxanthin Levels (plasma): 0.1309
[4]; 8 mg astaxanthin daily, 8 week
  Astaxanthin Levels (plasma): 0.1162
[4]; week 0
  plasma astaxanthin prior to feeding: undetectable
[4]; weeks 4 and 8, dose-dependently, P<0.01
  plasma astaxanthin, change on feeding: increased
[5]; oil
  solubility in oil: extremely low
[5]; water
  solubility in water: substantially insoluble
Human subjects; 2 mg daily, week 8, P<0.08
  DTH response vs unsupplemented controls: higher
Human subjects; 8 mg daily, week 8
  DTH response vs unsupplemented controls: did not show a similar heightened DTH response
[6]
  concentration in plasma vs β-carotene, lutein: much higher
[7]
  Con A-induced lymphocyte proliferation (stimulation index): increased; also recorded: stimulated
  PHA-induced lymphocyte proliferation (stimulation index): increased; also recorded: stimulated
  PWM-induced lymphocyte proliferation (stimulation index): increased; also recorded: stimulated
Lipid peroxidation
  inhibiting lipid peroxidation vs β-carotene and vitamin E: more effective
splenocytes
  ex vivo antibody response of splenocytes to T-cell antigens: increased
[8]
  lipid peroxidation measured in the plasma (8-isoprostane): did not significantly influence
[9]; 2 mg daily, after 8 weeks, P<0.05
  population of B cells: higher
[9]; 8 mg daily
  population of B cells: did not elevate
[9]; 2 or 8 mg daily
  population of Th, Tc or NK cells or ratio of Th:Tc cells: did not significantly influence
[9]; both levels (2 and 8 mg), wk 4 and 8, P<0.05
  population of total T cells vs unsupplemented controls: higher; also recorded: increased
K562 target cells
  NK cell cytotoxic activity: higher; also recorded: increased
[10]; 2 mg astaxanthin daily, 0 week (baseline)
  Average Levels of 8-OHdG (plasma): 23.4
[10]; 2 mg astaxanthin daily, 4 week
  Average Levels of 8-OHdG (plasma): 13.8
[10]; 2 mg astaxanthin daily, 8 week
  Average Levels of 8-OHdG (plasma): 14.4
[10]; 8 mg astaxanthin daily, 0 week (baseline)
  Average Levels of 8-OHdG (plasma): 23.5
[10]; 8 mg astaxanthin daily, 4 week
  Average Levels of 8-OHdG (plasma): 15.3
[10]; 8 mg astaxanthin daily, 8 week
  Average Levels of 8-OHdG (plasma): 13.2
[10]; 8 mg vs 2 mg daily
  further decrease of DNA damage with higher dose: did not decrease further
[10]; 2 or 8 mg daily, as early as wk 4, P<0.01
  plasma 8-oxodG concentration vs unsupplemented subjects: dramatically lower
[10]; after 4 weeks of feeding
  reduction in 8-OHdG (blood DNA damage): > 35%
rats
  effects on body/organ weight, enzyme activities, pregnancy, or litter size: no harmful effects

## CC1=C[C@H](O)CC(C)(C)[C@H]1/C=C/C(C)=C/C=C/C(C)=C/C=C/C=C(C)/C=C/C=C(C)/C=C/C1=C(C)C[C@@H](O)CC1(C)C [lutein]
[11]
  IFN-γ mRNA expression: increased
  expression of IL-10: decreased
